Data published in ChEMBL document CHEMBL1933053, “Efficient microwave-assisted synthesis, antibacterial activity and high fluorescence of 5 benzimidazolyl-2'-deoxyuridines” (2012).
Values after ≈ are worked out from the molar mass of the structure shown. Active and inactive are the calls of the source. The calls are words filed in the database; no cut-off is given here.

Key:
Staphylococcus aureus [1] = experiment: Antibacterial activity against Staphylococcus aureus after overnight incubation by twofold broth dilution technique; format: functional
Streptococcus pneumoniae [2] = experiment: Antibacterial activity against Streptococcus pneumoniae expressing PenR gene after overnight incubation by twofold broth dilution technique; format: functional
Enterococcus faecalis = experiment: Antibacterial activity against Enterococcus faecalis ATCC 29212 expressing VanS gene after overnight incubation by twofold broth dilution technique; format: functional
Staphylococcus aureus [3] = experiment: Antibacterial activity against Staphylococcus aureus ATCC 25923 after overnight incubation by twofold broth dilution technique in presence of 10% human serum; format: functional
Pseudomonas aeruginosa = experiment: Antibacterial activity against Pseudomonas aeruginosa ATCC 27853 after overnight incubation by twofold broth dilution technique; format: functional
Streptococcus pneumoniae [4] = experiment: Antibacterial activity against Streptococcus pneumoniae ATCC 49619 after overnight incubation by twofold broth dilution technique; format: functional
Streptococcus pneumoniae [5] = experiment: Antibacterial activity against Streptococcus pneumoniae expressing PenR gene after overnight incubation by twofold broth dilution technique in presence of 2.5% blood; format: functional
Staphylococcus aureus [6] = experiment: Antibacterial activity against Staphylococcus aureus ATCC 25923 after overnight incubation by twofold broth dilution technique in presence of 50% human serum; format: functional
[7] = tested on: Human immunodeficiency virus; experiment: Antiviral activity against HIV infected in human MT4 cells assessed as inhibition of virus-induced cytopathogenicity by MTT assay; format: functional, organism-based
Enterococcus faecium = experiment: Antibacterial activity against Enterococcus faecium expressing VanA gene after overnight incubation by twofold broth dilution technique; format: functional
Staphylococcus aureus [8] = experiment: Antibacterial activity against Staphylococcus aureus ATCC 25923 after overnight incubation by twofold broth dilution technique; format: functional
Haemophilus influenzae = experiment: Antibacterial activity against Haemophilus influenzae ATCC 31517 after overnight incubation by twofold broth dilution technique; format: functional
Escherichia coli = experiment: Antibacterial activity against Escherichia coli ATCC 25922 after overnight incubation by twofold broth dilution technique; format: functional
Staphylococcus aureus [9] = experiment: Antibacterial activity against Staphylococcus aureus ATCC 13709 after overnight incubation by twofold broth dilution technique; format: functional
Staphylococcus aureus [10] = experiment: Antibacterial activity against methicillin-resistant Staphylococcus aureus after overnight incubation by twofold broth dilution technique; format: functional

O=c1[nH]c(=O)n([C@H]2C[C@H](O)[C@@H](CO)O2)cc1-c1nc2ccccc2[nH]1
MIC (Staphylococcus aureus [1]): > 64 µg/mL | MIC (Streptococcus pneumoniae [2]): > 64 µg/mL | MIC (Enterococcus faecalis): > 64 µg/mL | MIC (Staphylococcus aureus [3]): > 64 µg/mL | MIC (Pseudomonas aeruginosa): > 64 µg/mL | MIC (Streptococcus pneumoniae [4]): > 64 µg/mL | MIC (Streptococcus pneumoniae [5]): > 64 µg/mL | MIC (Staphylococcus aureus [6]): > 64 µg/mL | inhibition [7]: inactive | MIC (Enterococcus faecium): > 64 µg/mL | MIC (Staphylococcus aureus [8]): > 64 µg/mL | MIC (Haemophilus influenzae): > 64 µg/mL | MIC (Escherichia coli): > 64 µg/mL | MIC (Staphylococcus aureus [9]): > 64 µg/mL

Cc1ccc2nc(-c3cn([C@H]4C[C@H](O)[C@@H](CO)O4)c(=O)[nH]c3=O)[nH]c2c1
MIC (Staphylococcus aureus [1]): > 64 µg/mL | MIC (Streptococcus pneumoniae [2]): > 64 µg/mL | MIC (Enterococcus faecalis): > 64 µg/mL | MIC (Staphylococcus aureus [3]): > 64 µg/mL | MIC (Pseudomonas aeruginosa): > 64 µg/mL | MIC (Streptococcus pneumoniae [4]): > 64 µg/mL | MIC (Streptococcus pneumoniae [5]): > 64 µg/mL | MIC (Staphylococcus aureus [6]): > 64 µg/mL | inhibition [7]: inactive | MIC (Enterococcus faecium): > 64 µg/mL | MIC (Staphylococcus aureus [8]): > 64 µg/mL | MIC (Haemophilus influenzae): > 64 µg/mL | MIC (Escherichia coli): > 64 µg/mL | MIC (Staphylococcus aureus [9]): > 64 µg/mL

O=c1[nH]c(=O)n([C@H]2C[C@H](O)[C@@H](CO)O2)cc1-c1nc2c3ccccc3c3ccccc3c2[nH]1
MIC (Staphylococcus aureus [1]): > 64 µg/mL | MIC (Streptococcus pneumoniae [2]): > 64 µg/mL | MIC (Enterococcus faecalis): > 64 µg/mL | MIC (Staphylococcus aureus [3]): > 64 µg/mL | MIC (Pseudomonas aeruginosa): > 64 µg/mL | MIC (Streptococcus pneumoniae [4]): > 64 µg/mL | MIC (Streptococcus pneumoniae [5]): > 64 µg/mL | MIC (Staphylococcus aureus [6]): > 64 µg/mL | inhibition [7]: inactive | MIC (Enterococcus faecium): > 64 µg/mL | MIC (Staphylococcus aureus [8]): > 64 µg/mL | MIC (Haemophilus influenzae): > 64 µg/mL | MIC (Escherichia coli): > 64 µg/mL | MIC (Staphylococcus aureus [9]): > 64 µg/mL

O=C(O)c1cn(C2CC2)c2cc(N3CCNCC3)c(F)cc2c1=O [CIPROFLOXACIN]
MIC (Staphylococcus aureus [1]): 0.12 µg/mL (≈ 0.362 µM) | MIC (Enterococcus faecalis): 0.5 µg/mL (≈ 1.51 µM) | MIC (Staphylococcus aureus [3]): 0.25 µg/mL | MIC (Streptococcus pneumoniae [4]): 1 µg/mL (≈ 3.02 µM) | MIC (Staphylococcus aureus [6]): 0.5 µg/mL | MIC (Enterococcus faecium): 16 µg/mL (≈ 48.3 µM) | MIC (Staphylococcus aureus [10]): 8 µg/mL (≈ 24.1 µM) | MIC (Staphylococcus aureus [8]): 0.25 µg/mL (≈ 0.754 µM) | MIC (Haemophilus influenzae): ≤ 0.03 µg/mL | MIC (Escherichia coli): ≤ 0.03 µg/mL | MIC (Staphylococcus aureus [9]): 0.12 µg/mL (≈ 0.362 µM)

O=c1[nH]c(=O)n([C@H]2C[C@H](O)[C@@H](CO)O2)cc1-c1nc2ccc(F)cc2[nH]1
MIC (Staphylococcus aureus [1]): > 64 µg/mL | MIC (Streptococcus pneumoniae [2]): > 64 µg/mL | MIC (Enterococcus faecalis): > 64 µg/mL | MIC (Staphylococcus aureus [3]): > 64 µg/mL | MIC (Pseudomonas aeruginosa): > 64 µg/mL | MIC (Streptococcus pneumoniae [4]): > 64 µg/mL | MIC (Streptococcus pneumoniae [5]): > 64 µg/mL | MIC (Staphylococcus aureus [6]): > 64 µg/mL | inhibition [7]: inactive | MIC (Enterococcus faecium): > 64 µg/mL | MIC (Staphylococcus aureus [8]): > 64 µg/mL | MIC (Haemophilus influenzae): > 64 µg/mL | MIC (Escherichia coli): > 64 µg/mL | MIC (Staphylococcus aureus [9]): > 64 µg/mL

CC(=O)NC[C@H]1CN(c2ccc(N3CCOCC3)c(F)c2)C(=O)O1 [LINEZOLID]
MIC (Staphylococcus aureus [1]): 1 µg/mL (≈ 2.96 µM) | MIC (Staphylococcus aureus [3]): 1 µg/mL | MIC (Pseudomonas aeruginosa): > 32 µg/mL | MIC (Streptococcus pneumoniae [5]): 0.25 µg/mL | MIC (Enterococcus faecium): 0.5 µg/mL (≈ 1.48 µM) | MIC (Staphylococcus aureus [10]): 1 µg/mL (≈ 2.96 µM) | MIC (Staphylococcus aureus [8]): 1 µg/mL (≈ 2.96 µM) | MIC (Haemophilus influenzae): 16 µg/mL (≈ 47.4 µM) | MIC (Escherichia coli): > 32 µg/mL | MIC (Staphylococcus aureus [9]): 1 µg/mL (≈ 2.96 µM)

O=c1[nH]c(=O)n([C@H]2C[C@H](O)[C@@H](CO)O2)cc1-c1nc2ccc(C(F)(F)F)cc2[nH]1
MIC (Staphylococcus aureus [1]): > 64 µg/mL | MIC (Streptococcus pneumoniae [2]): 32 µg/mL (≈ 77.6 µM) | MIC (Enterococcus faecalis): > 64 µg/mL | MIC (Staphylococcus aureus [3]): > 64 µg/mL | MIC (Pseudomonas aeruginosa): > 64 µg/mL | MIC (Streptococcus pneumoniae [4]): 64 µg/mL (≈ 155 µM) | MIC (Streptococcus pneumoniae [5]): 64 µg/mL | MIC (Staphylococcus aureus [6]): > 64 µg/mL | inhibition [7]: inactive | MIC (Enterococcus faecium): 64 µg/mL (≈ 155 µM) | MIC (Staphylococcus aureus [8]): > 64 µg/mL | MIC (Haemophilus influenzae): 4 µg/mL (≈ 9.7 µM) | MIC (Escherichia coli): > 64 µg/mL | MIC (Staphylococcus aureus [9]): > 64 µg/mL

COc1ccc2nc(-c3cn([C@H]4C[C@H](O)[C@@H](CO)O4)c(=O)[nH]c3=O)[nH]c2c1
MIC (Staphylococcus aureus [1]): > 64 µg/mL | MIC (Streptococcus pneumoniae [2]): > 64 µg/mL | MIC (Enterococcus faecalis): > 64 µg/mL | MIC (Staphylococcus aureus [3]): > 64 µg/mL | MIC (Pseudomonas aeruginosa): > 64 µg/mL | MIC (Streptococcus pneumoniae [4]): > 64 µg/mL | MIC (Streptococcus pneumoniae [5]): > 64 µg/mL | MIC (Staphylococcus aureus [6]): > 64 µg/mL | inhibition [7]: inactive | MIC (Enterococcus faecium): > 64 µg/mL | MIC (Staphylococcus aureus [8]): > 64 µg/mL | MIC (Haemophilus influenzae): > 64 µg/mL | MIC (Escherichia coli): > 64 µg/mL | MIC (Staphylococcus aureus [9]): > 64 µg/mL

O=c1[nH]c(=O)n([C@H]2C[C@H](O)[C@@H](CO)O2)cc1-c1nc2cc3ccccc3cc2[nH]1
MIC (Staphylococcus aureus [1]): > 64 µg/mL | MIC (Streptococcus pneumoniae [2]): > 64 µg/mL | MIC (Enterococcus faecalis): > 64 µg/mL | MIC (Staphylococcus aureus [3]): > 64 µg/mL | MIC (Pseudomonas aeruginosa): > 64 µg/mL | MIC (Streptococcus pneumoniae [4]): > 64 µg/mL | MIC (Streptococcus pneumoniae [5]): > 64 µg/mL | MIC (Staphylococcus aureus [6]): > 64 µg/mL | inhibition [7]: inactive | MIC (Enterococcus faecium): > 64 µg/mL | MIC (Staphylococcus aureus [8]): > 64 µg/mL | MIC (Haemophilus influenzae): > 64 µg/mL | MIC (Escherichia coli): > 64 µg/mL | MIC (Staphylococcus aureus [9]): > 64 µg/mL

O=c1[nH]c(=O)n([C@H]2C[C@H](O)[C@@H](CO)O2)cc1-c1nc2cc(C(F)(F)F)cc(Cl)c2[nH]1
MIC (Staphylococcus aureus [1]): 2 µg/mL (≈ 4.48 µM) | MIC (Streptococcus pneumoniae [2]): 4 µg/mL (≈ 8.95 µM) | MIC (Enterococcus faecalis): 2 µg/mL (≈ 4.48 µM) | MIC (Staphylococcus aureus [3]): > 64 µg/mL | MIC (Pseudomonas aeruginosa): > 64 µg/mL | MIC (Streptococcus pneumoniae [4]): 4 µg/mL (≈ 8.95 µM) | MIC (Streptococcus pneumoniae [5]): 16 µg/mL | MIC (Staphylococcus aureus [6]): > 64 µg/mL | inhibition [7]: inactive | MIC (Enterococcus faecium): 1 µg/mL (≈ 2.24 µM) | MIC (Staphylococcus aureus [10]): 2 µg/mL (≈ 4.48 µM) | MIC (Staphylococcus aureus [8]): 2 µg/mL (≈ 4.48 µM) | MIC (Haemophilus influenzae): > 64 µg/mL | MIC (Escherichia coli): > 64 µg/mL | MIC (Staphylococcus aureus [9]): 2 µg/mL (≈ 4.48 µM)
